Assay results as given in paper doi:10.1101/2024.02.22.581678v1 (biorxiv, 2024).

target: MeAmi_SBP; assay: isothermal analysis of ligand-titrated DSF; format: binding, Mesorhizobium sp.; conditions: 50 mM Tris, 300 mM NaCl, pH 7.4; 8.4 μM His6-tagged protein; one-site model

How did the Kd turn out when C[C@H](N)C(N)=O [L-alaninamide] was run?
The Kd was 1530 nM.

NC(=O)[C@@H](N)Cc1ccc(O)cc1 [L-tyrosinamide] was tested. Which Kd did it give?
The Kd was 187 nM.

Which Kd does the source give for NCC(N)=O [glycinamide] here?
Its Kd is 49700 nM.
